Measured values as given in the NIST ThermoML archive (doi:10.1016/j.jct.2016.03.021).

Assay: wn = mass fraction of the nth substance listed
Conditions: Liquid; for mass density: Vibrating tube method

CN(CCO)CCO [N-methyldiethanolamine] + O
viscosity [mPa·s]
Conditions | w1 = 0.1 | w1 = 0.2 | w1 = 0.2002 | w1 = 0.3 | w1 = 0.4
293.15 K, 93 kPa, Concentric cylinders viscometry | 1.463 | 2.293 | – | 3.942 | –
293.15 K, 100 kPa, Falling or rolling sphere viscometry | 1.476 | 2.35 | 2.35 | 3.999 | –
293.15 K, 5000 kPa, Falling or rolling sphere viscometry | 1.475 | – | 2.353 | 4.018 | –
293.15 K, 10000 kPa, Falling or rolling sphere viscometry | 1.475 | – | 2.357 | 4.038 | –
293.15 K, 20000 kPa, Falling or rolling sphere viscometry | 1.471 | – | 2.364 | 4.077 | –
293.15 K, 30000 kPa, Falling or rolling sphere viscometry | 1.472 | – | 2.372 | 4.114 | –
293.15 K, 40000 kPa, Falling or rolling sphere viscometry | 1.47 | – | 2.38 | 4.153 | –
293.15 K, 60000 kPa, Falling or rolling sphere viscometry | 1.474 | – | 2.399 | 4.231 | –
293.15 K, 80000 kPa, Falling or rolling sphere viscometry | 1.477 | – | 2.419 | 4.311 | –
293.15 K, 100000 kPa, Falling or rolling sphere viscometry | 1.485 | – | 2.437 | 4.39 | –
293.15 K, 120000 kPa, Falling or rolling sphere viscometry | 1.492 | – | 2.464 | 4.478 | –
313.15 K, 93 kPa, Concentric cylinders viscometry | 0.9079 | 1.342 | – | 2.094 | 3.145
313.15 K, 100 kPa, Falling or rolling sphere viscometry | 0.912 | 1.345 | 1.345 | 2.095 | 3.238
313.15 K, 5000 kPa, Falling or rolling sphere viscometry | 0.914 | – | 1.347 | 2.106 | 3.27
313.15 K, 10000 kPa, Falling or rolling sphere viscometry | 0.915 | – | 1.349 | 2.118 | 3.302
313.15 K, 20000 kPa, Falling or rolling sphere viscometry | 0.92 | – | 1.358 | 2.144 | 3.365
313.15 K, 30000 kPa, Falling or rolling sphere viscometry | 0.923 | – | 1.367 | 2.168 | 3.428
313.15 K, 40000 kPa, Falling or rolling sphere viscometry | 0.927 | – | 1.377 | 2.192 | 3.491
313.15 K, 60000 kPa, Falling or rolling sphere viscometry | 0.936 | – | 1.398 | 2.244 | 3.618
313.15 K, 80000 kPa, Falling or rolling sphere viscometry | 0.945 | – | 1.418 | 2.296 | 3.74
313.15 K, 100000 kPa, Falling or rolling sphere viscometry | 0.955 | – | 1.445 | 2.356 | 3.866
313.15 K, 120000 kPa, Falling or rolling sphere viscometry | 0.964 | – | 1.466 | 2.412 | 3.996
333.15 K, 93 kPa, Concentric cylinders viscometry | 0.6344 | 0.8719 | – | 1.276 | 1.82
333.15 K, 100 kPa, Falling or rolling sphere viscometry | 0.624 | 0.872 | 0.872 | 1.271 | 1.843
333.15 K, 5000 kPa, Falling or rolling sphere viscometry | 0.627 | – | 0.876 | 1.278 | 1.861
333.15 K, 10000 kPa, Falling or rolling sphere viscometry | 0.63 | – | 0.881 | 1.286 | 1.88
333.15 K, 20000 kPa, Falling or rolling sphere viscometry | 0.634 | – | 0.89 | 1.302 | 1.921
333.15 K, 30000 kPa, Falling or rolling sphere viscometry | 0.638 | – | 0.898 | 1.316 | 1.956
333.15 K, 40000 kPa, Falling or rolling sphere viscometry | 0.643 | – | 0.907 | 1.332 | 1.992
333.15 K, 60000 kPa, Falling or rolling sphere viscometry | 0.652 | – | 0.924 | 1.367 | 2.063

mass density [kg/m3]
Conditions | w1 = 0.1 | w1 = 0.2002 | w1 = 0.3 | w1 = 0.4
293.15 K, 100 kPa | 1007 | 1016.5 | 1026.7 | 1036.6
293.15 K, 500 kPa | 1007.2 | 1016.6 | 1026.9 | 1036.8
293.15 K, 1000 kPa | 1007.4 | 1016.8 | 1027.1 | 1036.9
293.15 K, 2000 kPa | 1007.8 | 1017.2 | 1027.4 | 1037.3
293.15 K, 5000 kPa | 1009 | 1018.4 | 1028.6 | 1038.3
293.15 K, 10000 kPa | 1011.1 | 1020.3 | 1030.4 | 1040.1
293.15 K, 15000 kPa | 1013.2 | 1022.2 | 1032.2 | 1041.9
293.15 K, 20000 kPa | 1015.3 | 1024.2 | 1034.1 | 1043.6
293.15 K, 30000 kPa | 1019.4 | 1028 | 1037.7 | 1047.1
293.15 K, 40000 kPa | 1023.4 | 1031.8 | 1041.2 | 1050.4
293.15 K, 50000 kPa | 1027.3 | 1035.4 | 1044.6 | 1053.8
293.15 K, 60000 kPa | 1031.1 | 1039 | 1048 | 1057.1
293.15 K, 70000 kPa | 1035 | 1042.6 | 1051.4 | 1060.3
293.15 K, 80000 kPa | 1038.5 | 1045.9 | 1054.6 | 1063.3
293.15 K, 90000 kPa | 1042.2 | 1049.4 | 1057.9 | 1066.4
293.15 K, 100000 kPa | 1045.7 | 1052.8 | 1061.1 | 1069.5
293.15 K, 110000 kPa | 1049.2 | 1056 | 1064.1 | 1072.4
293.15 K, 120000 kPa | 1052.7 | 1059.3 | 1067.2 | 1075.4
293.15 K, 130000 kPa | 1056.1 | 1062.6 | 1070.3 | 1078.4
293.15 K, 140000 kPa | 1059.5 | 1065.6 | 1073.2 | 1081.1
313.15 K, 100 kPa | 1000.2 | 1008.5 | 1017.2 | 1025.5
313.15 K, 500 kPa | 1000.4 | 1008.6 | 1017.4 | 1025.6
313.15 K, 1000 kPa | 1000.6 | 1008.8 | 1017.5 | 1025.8
313.15 K, 2000 kPa | 1001 | 1009.2 | 1017.9 | 1026.2
313.15 K, 5000 kPa | 1002.2 | 1010.4 | 1019.1 | 1027.3
313.15 K, 10000 kPa | 1004.3 | 1012.3 | 1020.9 | 1029.2
313.15 K, 15000 kPa | 1006.3 | 1014.2 | 1022.8 | 1031
313.15 K, 20000 kPa | 1008.2 | 1016.1 | 1024.6 | 1032.8
313.15 K, 30000 kPa | 1012.3 | 1019.9 | 1028.4 | 1036.3
313.15 K, 40000 kPa | 1016.2 | 1023.7 | 1032 | 1040
313.15 K, 50000 kPa | 1019.9 | 1027.3 | 1035.5 | 1043.2
313.15 K, 60000 kPa | 1023.8 | 1031 | 1039 | 1046.6
313.15 K, 70000 kPa | 1027.4 | 1034.4 | 1042.3 | 1050
313.15 K, 80000 kPa | 1031 | 1037.9 | 1045.5 | 1053.1
313.15 K, 90000 kPa | 1034.5 | 1041.2 | 1048.7 | 1056.2
313.15 K, 100000 kPa | 1038.2 | 1044.7 | 1052 | 1059.5
313.15 K, 110000 kPa | 1041.5 | 1047.9 | 1055.2 | 1062.5
313.15 K, 120000 kPa | 1044.9 | 1051.1 | 1058.3 | 1065.5
313.15 K, 130000 kPa | 1048.1 | 1054.3 | 1061.3 | 1068.4
313.15 K, 140000 kPa | 1051.4 | 1057.4 | 1064.5 | 1071.4
333.15 K, 100 kPa | 990.5 | 997.8 | 1005.4 | 1012.4
333.15 K, 500 kPa | 990.6 | 998 | 1005.6 | 1012.7
333.15 K, 1000 kPa | 990.8 | 998.2 | 1005.7 | 1012.8
333.15 K, 2000 kPa | 991.3 | 998.6 | 1006.2 | 1013.2
333.15 K, 5000 kPa | 992.5 | 999.8 | 1007.3 | 1014.4
333.15 K, 10000 kPa | 994.6 | 1001.8 | 1009.3 | 1016.4
333.15 K, 15000 kPa | 996.6 | 1003.8 | 1011.3 | 1018.4
333.15 K, 20000 kPa | 998.6 | 1005.7 | 1013.2 | 1020.3
333.15 K, 30000 kPa | 1002.6 | 1009.7 | 1017 | 1024.1
333.15 K, 40000 kPa | 1006.7 | 1013.6 | 1020.9 | 1027.9
333.15 K, 50000 kPa | 1010.4 | 1017.2 | 1024.3 | 1031.4
333.15 K, 60000 kPa | 1014.2 | 1020.9 | 1027.9 | –
